Measurements as given in US9687432B2, “Antimicrobial bispyridine amine compositions and uses” (LONZA INC., priority 2012, dated 2017).

Legend:
Foam height test = assay type: physicochemical; settings: for foam height, 30 sec / foam height, 1 min / foam height, 2 min / foam height, Initial Reading: 0.5 grams in 49.5 ml DI water; for foam height, 30 sec / foam height, 1 min / foam height, 2 min: 100 ml graduated cylinder; for foam height, Initial Reading: read in 100 ml graduated cylinder with 1 ml line increments; for Type of Foam: 0.5 grams of active in 49.5 ml DI water, blended 1 minute
Description: The testing was performed on samples containing octenidine dihydrochloride, octenidine distearate, PHMB HCl and the chloride salts benzalkonium chloride, benzethonium chloride, and cetylpyridinium chloride.
A 250 ml beaker was filed with 49.5 ml of deionized (DI) water for each sample. Then, 0.5 grams of the active was added to the beaker. Each solution was blended with a Bamix® wand homogenizer/mixer for 1 minute. The solution was then poured into a 100 ml graduated cylinder with 1 ml line increments. The height of the foam was documented at an initial, 30 second, 1 minute, and 2 minute time point.

[1] = tested on: Bacillus licheniformis (14580); experiment: MIC test against skin microorganisms; assay type: cell-based; settings: 48 hrs at 36° C., two different sets
Description: (§1) MICs for the organisms were determined using a standard 96-well microtiter plate assay in Trypic Soy Broth (TSB). […] Bacteria were grown in Tryptic Soy Broth or Brain Heart Infusion (E. hirae) for 24 hrs and were adjusted to one million cells per milliliter in same type of broth. Following incubation (48 hrs at 36° C.), the lowest concentration of test compound inhibiting growth was recorded as the Minimum Inhibitory Concentration (MIC). The actives were serially diluted and tested at final concentrations ranging from 156.3-0.61 ppm. MIC was run for two different sets.
(§2) Bacteria were grown overnight in Tryptic Soy Brother (TSB) or Brain Heart Infusion (BHI) and were adjusted to approximately 1×10^6 colony forming units per ml (cfu/ml) and used to inoculate the wells. Final bacterial concentration in the test wells was 5×10^5 cfu/ml. For Corynebacterium spp, TSB was used for the first set and BHI for the second set. Inoculated microtiter plates were incubated at 36° C. for 48 hours.
(§3) The lowest concentration of test compound inhibiting growth was recorded as the minimum inhibitory concentration.

[2] = tested on: Corynebacterium minutissimum (23348); experiment: MIC test against skin microorganisms; assay type: cell-based; settings: 48 hrs at 36° C., TSB first set, BHI second set
Description: as §1, §2, §3

[3] = tested on: Corynebacterium xerosis (373); experiment: MIC test against skin microorganisms; assay type: cell-based; settings: 48 hrs at 36° C., TSB first set, BHI second set
Description: as §1, §2, §3

[4] = tested on: Staphylococcus haemolyticus (29970); experiment: MIC test against skin microorganisms; assay type: cell-based; settings: 48 hrs at 36° C., two different sets
Description: as §1, §2, §3

[5] = tested on: Aspergillus niger (16404); experiment: Minimum Inhibitory Concentration (MIC) test, 96-well microtiter plate; assay type: cell-based; settings: 48 hrs at 36° C., Sabouraud Dextrose Broth
Description: (§4) MICs for the organisms were determined using a standard 96-well microtiter plate assay in Tryptic Soy Broth (TSB) or Sabouraud Dextrose Broth (SDB). A stock solution (2500 ppm) of Octenidine distearate was prepared in methanol and stock solutions (2500 ppm) of Octenidine dihydrochloride and PHMB were prepared in absolute ethanol. […] Fungal inocula were grown up on Sabouraud Dextrose Agar plates (yeast) or Potato Dextrose Agar plates (mold) and mold spores and yeast cells were adjusted to approximately 100,000 per milliliter in Sabouraud Dextrose Broth (pH 5.6). Bacterial and fungal cultures were used to inoculate the serially diluted antimicrobials in the 96 well microplate and the plate was then incubated for 48 hrs at 36° C. The lowest concentration of test compound inhibiting growth at 48 hrs. (as determined by visual inspection) was recorded as the Minimum Inhibitory Concentration (MIC)

[6] = tested on: Aureobasidium pullulans (9348); experiment: as above; assay type: cell-based; settings: 48 hrs at 36° C., Sabouraud Dextrose Broth
Description: as §4

Bacillus subtilus (6633) = experiment: as above; assay type: cell-based; settings: 48 hrs at 36° C., visual inspection
Description: as §4

Candida albicans (10231) = experiment: as above; assay type: cell-based; settings: 48 hrs at 36° C., Sabouraud Dextrose Broth
Description: as §4

[7] = tested on: Enterobacter gergoviae (33028); experiment: as above; assay type: cell-based; settings: 48 hrs at 36° C., visual inspection
Description: as §4

[8] = tested on: Enterococcus hirae (8043); experiment: as above; assay type: cell-based; settings: 48 hrs at 36° C., visual inspection
Description: as §4

Escherichia coli (10536) = experiment: as above; assay type: cell-based; settings: 48 hrs at 36° C., visual inspection
Description: as §4

[9] = tested on: Gliocladium virens (9645); experiment: as above; assay type: cell-based; settings: 48 hrs at 36° C., Sabouraud Dextrose Broth
Description: as §4

[10] = tested on: Klebsiella pneumoniae (4352); experiment: as above; assay type: cell-based; settings: 48 hrs at 36° C., visual inspection
Description: as §4

LB penicillium sp. = experiment: as above; assay type: cell-based; settings: 48 hrs at 36° C., Sabouraud Dextrose Broth
Description: as §4

Paecilomyces sp. = experiment: as above; assay type: cell-based; settings: 48 hrs at 36° C., Sabouraud Dextrose Broth
Description: as §4

[11] = tested on: Penicillium pinophilium (11797); experiment: as above; assay type: cell-based; settings: 48 hrs at 36° C., Sabouraud Dextrose Broth
Description: as §4

[12] = tested on: Pseudomonas aeruginosa (15442); experiment: as above; assay type: cell-based; settings: 48 hrs at 36° C., visual inspection
Description: as §4

[13] = tested on: Pseudomonas aeruginosa (9027); experiment: as above; assay type: cell-based; settings: 48 hrs at 36° C., visual inspection
Description: as §4

[14] = tested on: Staphylococcus aureus (6538); experiment: as above; assay type: cell-based; settings: 48 hrs at 36° C., visual inspection
Description: as §4

CC(C)(C)CC(C)(C)c1ccc(OCCOCC[N+](C)(C)Cc2ccccc2)cc1 [Benzethonium Chloride, benzethonium chloride]
foam height, 30 sec (Foam height test): 107 | foam height, 1 min (Foam height test): 107 | foam height, 2 min (Foam height test): 106 | foam height, Initial Reading (Foam height test): 107 | Type of Foam (Foam height test): Tight

Polyhexamethylene biguanide stearate [PHMBS]
MIC (ppm) [1]: 2.44-4.88 ppm | MIC (ppm) [2]: 0.61-4.88 ppm | MIC (ppm) [3]: 9.76 ppm | MIC (ppm) [4]: 2.44-4.88 ppm

benzalkonium chloride
foam height, 30 sec (Foam height test): 103 | foam height, 1 min (Foam height test): 102 | foam height, 2 min (Foam height test): 102 | foam height, Initial Reading (Foam height test): 103 | Type of Foam (Foam height test): Tight

polyhexamethylene biguanide hydrochloride [PHMB]
Minimum Inhibitory Concentration (MIC) [5]: 2.44 ppm | Minimum Inhibitory Concentration (MIC) [6]: 1.22 ppm | Minimum Inhibitory Concentration (MIC) (Bacillus subtilus (6633)): 0.31-0.61 ppm ^ | Minimum Inhibitory Concentration (MIC) (Candida albicans (10231)): 0.61 ppm | Minimum Inhibitory Concentration (MIC) [7]: 1.22-2.44 ppm ^ | Minimum Inhibitory Concentration (MIC) [8]: 2.44 ppm | Minimum Inhibitory Concentration (MIC) (Escherichia coli (10536)): 1.22 ppm | Minimum Inhibitory Concentration (MIC) [9]: 0.61 ppm | Minimum Inhibitory Concentration (MIC) [10]: 1.22-2.44 ppm ^ | Minimum Inhibitory Concentration (MIC) (LB penicillium sp.): 1.22 ppm | Minimum Inhibitory Concentration (MIC) (Paecilomyces sp.): 1250-5000 ppm | Minimum Inhibitory Concentration (MIC) [11]: 2.44 ppm | Minimum Inhibitory Concentration (MIC) [12]: 4.88 ppm | Minimum Inhibitory Concentration (MIC) [13]: 2.44 ppm | Minimum Inhibitory Concentration (MIC) [14]: 1.22-2.44 ppm ^ | foam height, 30 sec (Foam height test): 85 | foam height, 1 min (Foam height test): 80 | foam height, 2 min (Foam height test): 75 | foam height, Initial Reading (Foam height test): 87 | Type of Foam (Foam height test): Slightly loose
